Target: T1, CYP11A1 (Homo sapiens, UniProt P05108)
T1 construct: human H295R adrenocortical carcinoma cell line was used as source of enzyme; endogenous in cells; host or cells: H295R human adrenocortical carcinoma cells
T1 sequence (P05108 40-521): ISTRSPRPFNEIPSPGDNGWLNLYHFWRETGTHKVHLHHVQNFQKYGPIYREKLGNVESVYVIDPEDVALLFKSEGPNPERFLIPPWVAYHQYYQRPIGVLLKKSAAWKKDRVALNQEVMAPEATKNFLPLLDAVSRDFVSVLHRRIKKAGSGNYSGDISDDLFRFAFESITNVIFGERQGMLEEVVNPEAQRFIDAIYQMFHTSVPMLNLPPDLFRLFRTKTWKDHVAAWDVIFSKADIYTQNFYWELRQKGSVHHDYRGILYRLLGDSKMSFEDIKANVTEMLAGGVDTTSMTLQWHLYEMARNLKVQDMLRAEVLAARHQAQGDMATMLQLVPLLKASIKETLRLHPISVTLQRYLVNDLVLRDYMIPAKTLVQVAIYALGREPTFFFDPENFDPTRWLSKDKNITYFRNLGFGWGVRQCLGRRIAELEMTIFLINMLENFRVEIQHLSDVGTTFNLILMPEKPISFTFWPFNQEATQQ
Experiment: CYP11A1 inhibition: modified isocaproic acid release assay (IARA) in H295R cells
Type: cell-based
Conditions: human H295R adrenocortical carcinoma cells treated three days, 3 nM [24,25-3H]-labelled cholesterol, 1% DMSO, 10 concentrations in duplicates; read-out: IC50 of the test compounds on CYP11A1 inhibition
Method in brief: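 H295R adrenocortical cells treated three days with test compounds at 10 concentrations in duplicate plus 3 nM [24,25-3H]-cholesterol, 1% DMSO final. Released radiolabelled isocaproic acid measured by scintillation counting after dextran-coated charcoal extraction; IC50 determined.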

Structure (SMILES): CN(C)C(=O)c1ccc(COc2coc(CN3Cc4ccc(F)cc4C3)cc2=O)cc1 [Compound 127, 4-(((6-((5-Fluoroisoindolin-2-yl)methyl)-4-oxo-4H-pyran-3-yl)oxy)methyl)-N,N-dimethylbenzamide]
- IC50: 150 to 300 nM

Structure (SMILES): CN(C)C(=O)c1ccc(CCOc2coc(CN3Cc4ccccc4C3)cc2=O)cc1 [Compound 112, 4-(2-((6-(Isoindolin-2-ylmethyl)-4-oxo-4H-pyran-3-yl)oxy)ethyl)-N,N-dimethylbenzamide]
- IC50: 301 to 2000 nM

Structure (SMILES): O=c1cc(CN2Cc3ccccc3C2)occ1OCc1ccc(C2(O)CCC2)cc1 [Compound 111, 5-((4-(1-Hydroxycyclobutyl)benzyl)oxy)-2-(isoindolin-2-ylmethyl)-4H-pyran-4-one]
- IC50: < 150 nM

Structure (SMILES): O=c1cc(CN2Cc3ccccc3C2)occ1OCc1ccc(-n2cccn2)cc1 [Compound 108, 5-((4-(1H-Pyrazol-1-yl)benzyl)oxy)-2-(isoindolin-2-ylmethyl)-4H-pyran-4-one]
- IC50: 150 to 300 nM

Structure (SMILES): CS(=O)(=O)c1ccc(COc2coc(CN3Cc4ccccc4C3)cc2=O)c(C(F)(F)F)c1 [Compound 19, 2-(Isoindolin-2-ylmethyl)-5-((4-(methylsulfonyl)-2-(trifluoromethyl)benzyl)oxy)-4H-pyran-4-one]
- IC50: 301 to 2000 nM

Structure (SMILES): C=Cc1ccc(COc2coc(CN3Cc4ccccc4C3)cc2=O)cc1 [Compound 144, 2-(Isoindolin-2-ylmethyl)-5-((4-vinylbenzyl)oxy)-4H-pyran-4-one]
- IC50: 301 to 2000 nM

Structure (SMILES): C[C@@H]1c2ccccc2CN1Cc1cc(=O)c(OCc2ccc(C(=O)N(C)C)cc2)co1 [Compound 133, (R)—N,N-Dimethyl-4-(((6-((1-methylisoindolin-2-yl)methyl)-4-oxo-4H-pyran-3-yl)oxy)methyl)benzamide]
- IC50: 301 to 2000 nM

Structure (SMILES): COCCNS(=O)(=O)c1ccc(COc2coc(CN3Cc4ccccc4C3)cc2=O)cc1 [Compound 11, 4-(((6-(Isoindolin-2-ylmethyl)-4-oxo-4H-pyran-3-yl)oxy)methyl)-N-(2-methoxyethyl)benzenesulfonamide]
- IC50: < 150 nM

Structure (SMILES): NC(=O)c1ccc(COc2coc(CN3CCc4ccccc4C3)cc2=O)c(F)c1 [Compound 55, 4-(((6-((3,4-Dihydroisoquinolin-2(1H)-yl)methyl)-4-oxo-4H-pyran-3-yl)oxy)-methyl)-3-fluorobenzamide]
- IC50: 301 to 2000 nM

Structure (SMILES): O=c1cc(CN2Cc3ccccc3C2)occ1OCc1ccc(S(=O)(=O)C2CC2)cc1 [Compound 72, 5-((4-(Cyclopropylsulfonyl)benzyl)oxy)-2-(isoindolin-2-ylmethyl)-4H-pyran-4-one]
- IC50: < 150 nM

Structure (SMILES): CC(=O)c1ccc(COc2coc(CN3Cc4ccccc4C3)cc2=O)cc1 [Compound 31, 5-((4-Acetylbenzyl)oxy)-2-(isoindolin-2-ylmethyl)-4H-pyran-4-one]
- IC50: 150 to 300 nM

Structure (SMILES): CS(=O)(=O)N1CCC(COc2coc(C[N+]3([O-])Cc4ccccc4C3)cc2=O)CC1 [Compound 289, 2-((5-((1-(Methylsulfonyl)piperidin-4-yl)methoxy)-4-oxo-4H-pyran-2-yl)-methyl)isoindoline 2-oxide]
- IC50: 301 to 2000 nM

Structure (SMILES): O=c1cc(CN2Cc3ccccc3C2)occ1OCc1ccc(S(=O)(=O)N2CCCC2)cc1 [Compound 5, 2-(Isoindolin-2-ylmethyl)-5-((4-(pyrrolidin-1-ylsulfonyl)benzyl)oxy)-4H-pyran-4-one]
- IC50: < 150 nM

Structure (SMILES): CS(C)(=O)=NC(=O)c1ccc(COc2coc(CN3Cc4ccc(F)cc4C3)cc2=O)cc1 [Compound 84, N-[Dimethyl(oxido)-λ^6-sulfanylidene]-4-[({6-[(5-fluoro-1,3-dihydro-2H-iso-indol-2-yl)methyl]-4-oxo-4H-pyran-3-yl}oxy)methyl]benzamide]
- IC50: < 150 nM

Structure (SMILES): CS(=O)(=O)CC(=O)N1CCC(COc2coc(CN3Cc4ccccc4C3)cc2=O)CC1 [Compound 238, 2-(Isoindolin-2-ylmethyl)-5-((1-(2-(methylsulfonyl)acetyl)piperidin-4-yl)-methoxy)-4H-pyran-4-one]
- IC50: < 150 nM

Source: patent US11098032B2, “Pyran dervatives as CYP11A1 (cytochrome P450 monooxygenase 11A1) inhibitors” (ORION CORPORATION, priority 2016, dated 2021)
